Data from PubChem BioAssay AID1963853 (Molecular Pharmacology Branch, DTP, NCI, 2024).
Values joined by “and” are separate entries in the source; they are usually repeats but may differ in a detail not shown here. Identical values can stand only once.

Tested on: 266295-075-R-J1-PDC spheroid viability
Assay: Anticancer human tumor 266295-075-R-J1-PDC patient-derived head and neck squamous carcinoma cell line growth inhibition [POLQ]
Settings: spheroids with HUVEC and MSC; for viability, T/C: stronger effect = lower value
Protocol: Multicellular complex tumor spheroid response to Polymerase (POL) inhibitors (novobiocin, ART-558, RP6685) in combination with a variety of drugs and investigational agents in selected tumor cell lines
The POL inhibitors (novobiocin, ART-558, and RP6685) were evaluated both individually and in combination with standard of care and investigational anticancer small molecules within a complex spheroid model of solid tumors. . Complex spheroids include a stromal component modeled by human endothelial cells (HUVEC) and fibroblasts modeled by human mesenchymal stem cells (MSCs). The concentration ranges selected for each drug and investigational agent were based upon clinically achievable concentrations if the clinical Cmax of the agent was known.
Compounds. The drugs and investigational agents: novobiocin (NSC847541), ART-558 (NSC835418), RP-6685 (NSC848927), peposertib (NSC802822), ceralasertib (NSC780249), elimusertib (NSC800525), camonsertib (NSC841442), AZD-1390 (NSC803789), olaparib (NSC753686), talazoparib (NSC767125), rucaparib (NSC756644), sotorasib (NSC818433), MRTX-1133 (NSC836407), SN-38 (NSC673596), topotecan (NSC609699), epotoside (NSC141540), doxorubicin (NSC123127), gemcitabine (NSC613327), 5-fluorouracil (NSC19893), paclitaxel (NSC125973), vemurafenib (NSC761431), MSA-2 (NSC828583), SN-011 (NSC837082), adavosertib (NSC754352), prexasertib (NSC758257), carboplatin (NSC241240) and oxaliplatin (NSC266046), were obtained from the National Cancer Institute (NCI) Developmental Therapeutics Program Chemical Repository (21). The FDA-approved anticancer drug set is available from the Developmental Therapeutics Program at https://dtp.cancer.gov/organization/dscb/obtaining/. […] The stock solutions were prepared in dimethyl sulfoxide (DMSO, Sigma-Aldrich, St. Louis, MO, cat. D2650), except for the platinum compounds which were prepared in saline (Quality Biological, Gaithersburg, MD, cat. 114-055-101), at 800-fold the tested concentration and stored at -70 degrees C prior to their use. All drugs and investigational agents were tested over a range starting from a high concentration at or near the clinical Cmax and decreasing in half-log increments. If the clinical Cmax for an agent had not been determined, the highest concentration tested was 10 microM, except for SN-38, which was tested at a high concentration of 1 microM.
Cell Culture. All cells were maintained in an incubator at 37 degrees C and 5% CO2 with 95% humidity. The PDC lines were cultured according to standard operating procedures established by the NCI PDMR (https://pdmr.cancer.gov). Table 3 of the manuscript, lists the cell lines along with the number of the three cell types plated to form the mct-spheroids and media for tumor cell growth. After thawing, all PDC lines, except 997537-175-T-J1-PDC and 415267-285-R-J2-PDC, were cultured in Matrigel-coated flasks prepared with a working solution of 1X Ham's F-12 nutrient mix, without supplementation (Thermo Fisher Scientific, cat. 11765054), 100 U/mL penicillin-streptomycin (Thermo Fisher Scientific, cat. 15140122), and 2.5% Matrigel (Corning Inc., Corning, NY, cat. 354248) for the first three passages. The two PDC lines 997537-175-T-J1-PDC and 415267-285-R-J2-PDC were cultured on uncoated flasks. The 857933-349-R-J2-PDC line was cultured in 6C/Colon 1B media containing advanced DMEM/F-12 (Thermo Fisher Scientific, cat. 12634028), 10 mM HEPES (Thermo Fisher Scientific, cat. 15630080), 1X GlutaMAX supplement (Thermo Fisher Scientific, cat. 35050061), 0.1 mg/mL primocin (InvivoGen, San Diego, CA, cat. ant-pm-2), 10% defined fetal bovine serum, heat inactivated (HyClone Laboratories Inc., Logan, UT, cat. SH30070.03HI), 50% L-WRN conditioned media (ATCC, cat. CRL-3276), 1.25 mM N-Acetyl-L-cysteine (Sigma-Aldrich, cat. A9165), 10 mM nicotinamide (Sigma-Aldrich, cat. N0636), 1X B-27 supplement (Thermo Fisher Scientific, cat. 17504044), 1X N-2 supplement (Thermo Fisher Scientific, cat. […]

[1] = curve of first compound, second compound 0.0316 µM
[2] = curve of first compound, second compound 0.1 µM
[3] = curve of first compound, second compound 0.316 µM
[4] = curve of first compound, second compound 1 µM
[5] = curve of first compound, second compound 3.16 µM
[6] = curve of first compound, second compound 10 µM
[7] = second compound 0.0316 µM, first compound 0.0316 µM
[8] = second compound 0.0316 µM, first compound 0.1 µM
[9] = second compound 0.0316 µM, first compound 0.316 µM
[10] = second compound 0.0316 µM, first compound 1 µM
[11] = second compound 0.0316 µM, first compound 3.16 µM
[12] = second compound 0.0316 µM, first compound 10 µM
[13] = second compound 0.1 µM, first compound 0.0316 µM
[14] = second compound 0.1 µM, first compound 0.1 µM
[15] = second compound 0.1 µM, first compound 0.316 µM
[16] = second compound 0.1 µM, first compound 1 µM
[17] = second compound 0.1 µM, first compound 3.16 µM
[18] = second compound 0.1 µM, first compound 10 µM
[19] = second compound 0.316 µM, first compound 0.0316 µM
[20] = second compound 0.316 µM, first compound 0.1 µM
[21] = second compound 0.316 µM, first compound 0.316 µM
[22] = second compound 0.316 µM, first compound 1 µM
[23] = second compound 0.316 µM, first compound 3.16 µM
[24] = second compound 0.316 µM, first compound 10 µM
[25] = second compound 1 µM, first compound 0.0316 µM
[26] = second compound 1 µM, first compound 0.1 µM
[27] = second compound 1 µM, first compound 0.316 µM
[28] = second compound 1 µM, first compound 1 µM
[29] = second compound 1 µM, first compound 3.16 µM
[30] = second compound 1 µM, first compound 10 µM
[31] = second compound 3.16 µM, first compound 0.0316 µM
[32] = second compound 3.16 µM, first compound 0.1 µM
[33] = second compound 3.16 µM, first compound 0.316 µM
[34] = second compound 3.16 µM, first compound 1 µM
[35] = second compound 3.16 µM, first compound 3.16 µM
[36] = second compound 3.16 µM, first compound 10 µM
[37] = second compound 10 µM, first compound 0.0316 µM
[38] = second compound 10 µM, first compound 0.1 µM
[39] = second compound 10 µM, first compound 0.316 µM
[40] = second compound 10 µM, first compound 1 µM
[41] = second compound 10 µM, first compound 3.16 µM
[42] = second compound 10 µM, first compound 10 µM
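Further: spheroids exposed to compounds for seven days before readout.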

O=C(c1cc(Cc2n[nH]c(=O)c3ccccc23)ccc1F)N1CCN(C(=O)C2CC2)CC1
viability, T/C (compound 0.0316 µM): 114% and 79.6% and 101%
viability, T/C (compound 0.1 µM): 84% and 87.8% and 94.3%
viability, T/C (compound 0.316 µM): 94.3% and 90.3% and 90.9%
viability, T/C (compound 1 µM): 91.9% and 99.1% and 99.3%
viability, T/C (compound 3.16 µM): 112% and 105% and 107%
viability, T/C (compound 10 µM): 85.3% and 86.9% and 82.6%
IC50 (curve of compound): > 10 µM

CC1COCCN1c1cc(C2(O)CC3CCC(C2)O3)c2cnn(-c3ccn[nH]3)c2n1 (stereo not drawn)
viability, T/C (compound 0.0316 µM): 74.1% and 100% and 73.6%
viability, T/C (compound 0.1 µM): 84.5% and 71.6% and 81%
viability, T/C (compound 0.316 µM): 62.8% and 65.5% and 67.8%
viability, T/C (compound 1 µM): 43.3% and 50.5% and 46.8%
viability, T/C (compound 3.16 µM): 40.4% and 43.8% and 42.7%
viability, T/C (compound 10 µM): 27.9% and 29.2% and 30.2%
IC50 (curve of compound): 0.708 µM and 0.992 µM and 0.944 µM

CNCc1ccc(-c2[nH]c3cc(F)cc4c3c2CCNC4=O)cc1 + Cc1cccc(N(C)C(=O)C2C(O)CCN2c2nc(C)cc(C(F)(F)F)c2C#N)c1
IC50 [1]: > 10 µM
IC50 [2]: > 10 µM
IC50 [3]: > 10 µM
IC50 [4]: > 10 µM
IC50 [5]: > 10 µM
IC50 [6]: > 10 µM
viability, T/C [7]: 87.1%
viability, T/C [8]: 117%
viability, T/C [9]: 87.5%
viability, T/C [10]: 105%
viability, T/C [11]: 107%
viability, T/C [12]: 102%
viability, T/C [13]: 95.4%
viability, T/C [14]: 99.8%
viability, T/C [15]: 88.2%
viability, T/C [16]: 84.2%
viability, T/C [17]: 126%
viability, T/C [18]: 128%
viability, T/C [19]: 104%
viability, T/C [20]: 111%
viability, T/C [21]: 104%
viability, T/C [22]: 99.1%
viability, T/C [23]: 98.3%
viability, T/C [24]: 112%
viability, T/C [25]: 102%
viability, T/C [26]: 102%
viability, T/C [27]: 99.9%
viability, T/C [28]: 93.6%
viability, T/C [29]: 110%
viability, T/C [30]: 123%
viability, T/C [31]: 105%
viability, T/C [32]: 88.7%
viability, T/C [33]: 101%
viability, T/C [34]: 102%
viability, T/C [35]: 112%
viability, T/C [36]: 115%
viability, T/C [37]: 90.1%
viability, T/C [38]: 115%
viability, T/C [39]: 113%
viability, T/C [40]: 126%
viability, T/C [41]: 107%
viability, T/C [42]: 106%

CC1COCCN1c1cc(-c2ccnn2C)c2ccnc(-c3ccn[nH]3)c2n1 (stereo not drawn) + Nc1ccc(C#CCN(C(=O)Cc2ncc(C(F)(F)F)cc2C(F)(F)F)c2ccc(F)cc2)nn1
IC50 [1]: 3.04 µM
IC50 [2]: 2.55 µM
IC50 [3]: 0.284 µM
IC50 [4]: 1.29 µM
IC50 [5]: 2.02 µM
IC50 [6]: 1.14 µM
viability, T/C [7]: 92.3%
viability, T/C [8]: 73.2%
viability, T/C [9]: 78%
viability, T/C [10]: 63.6%
viability, T/C [11]: 46.9%
viability, T/C [12]: 36.5%
viability, T/C [13]: 92.1%
viability, T/C [14]: 84.4%
viability, T/C [15]: 69.1%
viability, T/C [16]: 57.5%
viability, T/C [17]: 52.2%
viability, T/C [18]: 34.3%
viability, T/C [19]: 90.2%
viability, T/C [20]: 86.1%
viability, T/C [21]: 44.8%
viability, T/C [22]: 55.6%
viability, T/C [23]: 42.3%
viability, T/C [24]: 42.5%
viability, T/C [25]: 85%
viability, T/C [26]: 76.3%
viability, T/C [27]: 59.1%
viability, T/C [28]: 52.1%
viability, T/C [29]: 46.2%
viability, T/C [30]: 26.8%
viability, T/C [31]: 103%
viability, T/C [32]: 83.8%
viability, T/C [33]: 74%
viability, T/C [34]: 60.7%
viability, T/C [35]: 43.1%
viability, T/C [36]: 30.7%
viability, T/C [37]: 97.2%
viability, T/C [38]: 91.9%
viability, T/C [39]: 69.5%
viability, T/C [40]: 54.7%
viability, T/C [41]: 35.8%
viability, T/C [42]: 35.6%
